From publication PMC12404492, “The crystal structure of Thermus thermophilus UMP kinase complexed with a phosphoryl group acceptor and donor” (PLOS One, 2025)

Biological target: T1, ttUMPK (UMP kinase of Thermus thermophilus HB8) (Thermus thermophilus, UniProt P43891)
T1 construct: gene pyrH; full-length gene in pET-11a (NdeI/BamHI), no tag mentioned; expressed in E. coli BL21(DE3), heat-treated; homohexamer by size exclusion
Assay: X-ray crystal structure, […] Å (second data set, PDB code not given)
Assay type: binding
Conditions: active site, most chains

T1 sequence (P43891 whole entry): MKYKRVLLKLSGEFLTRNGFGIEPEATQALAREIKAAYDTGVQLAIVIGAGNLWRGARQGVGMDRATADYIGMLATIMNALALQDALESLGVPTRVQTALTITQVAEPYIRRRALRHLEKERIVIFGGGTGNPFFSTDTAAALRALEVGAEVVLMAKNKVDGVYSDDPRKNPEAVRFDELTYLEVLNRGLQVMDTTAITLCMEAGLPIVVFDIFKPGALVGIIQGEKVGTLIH

SMILES: O=c1ccn([C@@H]2O[C@H](COP(=O)(O)O)[C@@H](O)[C@H]2O)c(=O)[nH]1 [UMP]
- X-ray crystal structure, 2.5 Å (second data set, PDB code not given): most of the bound uridine nucleotides in the active site are UMP, not UDP
